Experimental data as given in patent US11358940B2, “K-Ras modulators” (THE REGENTS OF THE UNIVERSITY OF CALIFORNIA, priority 2017, dated 2022).

Legend:
[1] = target: T1, GDP loaded KRAS4b(1-169) H95C/C118S mutant (Homo sapiens, UniProt P01116, C118S/H95C); assay: MALDI-TOF percentage labeling of C95, GDP-loaded protein; type: binding; conditions: for level of covalent labeling to C95 (percent of labeling), GDP, 3 h: 3 h incubation; for level of covalent labeling to C95 (percent of labeling), GDP, 6 h: 6 h incubation; for level of covalent labeling to C95 (percent of labeling), GDP, 24 h: 24 h incubation
T1 construct: loaded KRAS4b(1-169) H95C/C118S mutant
Protocol: (§1) Table 1 is a table summarizing levels of covalent labeling to C95 as analyzed by MALDI-TOF MS for a series of synthesized compounds. […] Both species, GDP or nonhydrolyzable analogue of GTP—GppNHp-loaded KRAS4b H95C/C118S, were then reacted with a panel of epoxides and analyzed by MALDI-TOF MS to assess level of covalent modification to C95 after 3 h, 6 h, or 24 h of incubation with the protein. All R isomers show enhanced activity compared to S isomers.
(§2) Example 18: Percentage Labeling Determination for Compounds Targeting KRAS4b Residue 95 by Matrix Assisted Laser Desorption Ionization-Time of Flight Mass Spectrometry (MALDI-TOF)
(§3) The assay uses four tool proteins: • Guanosine diphosphate (GDP) loaded KRAS4b(1-169) H95C/C118S mutant • 5′-Guanylyl imidodiphosphate (GppNHp) loaded KRAS4b(1-169) H95C/C118S mutant • GDP loaded KRAS4b(1-169) C118S mutant • GppNHp loaded KRAS4b(1-169) C118S mutant
(§4) 20 μM Solution of protein in 20 mM HEPES, 150 mM NaCl, 1 mM MgCl2, pH 7.3 buffer was prepared freshly before assay. 20 μl Aliquots of protein were dispensed on 384 well polypropylene plate, then tested compounds (0.8 μl, 10 mM in DMSO) were added to appropriate wells. For each reaction/assay three blank and three control samples were prepared by mixing 20 μl of protein solution with 0.8 μl DMSO or 10 mM standards (compounds 994566 and FB9). The wells content was carefully mixed by aspiration, then plate was sealed by adhesive cover, centrifuged at 2000 g for 1 minute and kept in dark at room temperature for 3, 6 (or 8) and 24 h.
(§5) Before each assay MALDI target (Bruker MPT 384 ground steel BC) was pre-treated by pipetting on each spot 1 μl of saturated sinapinic acid in acetonitrile (ACN).
(§6) After 24 h reaction, 2 μl of reaction mixtures were pipetted out into 20 μl MALDI matrix solution (saturated solution of sinapinic acid in 1:1 ACN:water solution containing 0.75% trifluoroacetic acid (TFA)) deposited on 384 well polypropylene plate. Resulting solution was mixed by aspiration, centrifuged at 2000 g for 1 minute, then 2 μl aliquots were dispensed on pre-treated MALDI target using Beckman Coulter Biomek FX^P 96/Span-8 Laboratory Automation Workstation. Finally, the MALDI target was dried under mild vacuum to produce spots with fine crystalline structure.
MALDI-TOF measurements were performed on Bruker Daltonics ultraflex III TOF-TOF mass spectrometer using linear mode and mass range from 5 to 45 kDa. Detector gain was set to ×9 (1734 V), sample rate to 1 GS/s, smart beam parameter set: 3_medium was used, and the laser frequency was 66.7 Hz. Spectra were automatically collected using custom AutoXecute method. Laser power was auto-adjusted using fuzzy control. The peak selection range was set to be between 19000 and 20200 Da. Peak evaluation uses half width parameter set to be smaller than 30 Da. Fuzzy control used Proteins/Oligonucleotides protocol with minimum half width ⅙ times above threshold. Up to 1500 shots were collected in 500 shot steps. Dynamic termination was implemented to finish data collection when peak intensity was reaching value of 1200 [a.u.].
Spectra were smoothed by SavitzkyGolay algorithm using 5 m/z width and three cycles. Centroid peak detection algorithm was used with signal to noise threshold set to 4, relative intensity threshold 2%, minimum intensity threshold 20 [a.u.], peak width 10 m/z and TopHat baseline subtraction. Peak intensity and area under the peak were evaluated and recorded for all peaks between 19248 Da and 20500 Da for H95/C118 mutant and 19285 Da and 20500 Da for C118 mutant respectively.
Percent of labeling was calculated using followed equation:
[formula] Similar results were obtained when peak area instead of peak height was used for calculations, however peak height method produced more reliable data in case of poor quality spectra.

[2] = target: T2, GppNHp loaded KRAS4b(1-169) H95C/C118S mutant (Homo sapiens, UniProt P01116, C118S/H95C); assay: MALDI-TOF percentage labeling of C95, GppNHp-loaded protein; type: binding; conditions: for level of covalent labeling to C95 (percent of labeling), GppNHp, 3 h: 3 h incubation; for level of covalent labeling to C95 (percent of labeling), GppNHp, 6 h: 6 h incubation; for level of covalent labeling to C95 (percent of labeling), GppNHp, 24 h: 24 h incubation
T2 construct: loaded KRAS4b(1-169) H95C/C118S mutant
Protocol: as §1
150 to 300 μM solution of GDP loaded protein in KRAS buffer was prepared (20 mM HEPES, 150 mM NaCl, 1 mM MgCl2, 0.05 mM TCEP, pH 7.3). To this was added vigorously 1500×molar excess of 1 M ammonium sulfate in KRAS buffer, and the combination mixed gently by inverting tube. Next was prepared 250 mM solution of GppNHp (150 molar excess of GppNHp to protein; keep it on ice). To the protein was pipetted 10% of prepared GppNHp solution, then suspension of alkaline phosphatase from calf intestine on agarose was added (Sigma-Aldrich, P0726) to have 2 units of enzyme per each mg of protein. The reaction mixture was incubated at room temperature, rotating end-over for 1 h 30 min. The alkaline phosphatase was removed on agarose beads by filtering solution to a new vial using Millex-GP syringe filter. Remaining solution of GppNHp was added and incubated for additional 45 min. At the end of the exchange the protein was filtered again, placed on ice, and purified on NGC medium-pressure chromatography system (Bio-Rad). Five in-lane connected desalting columns (5×GE Healthcare HiTrap Desalting columns 5 ml, 17-1408-01) were used with isocratic elution of KRAS buffer at 4 ml/min. The protein elution was monitored at 280 nm. The concentration of final protein was evaluated by NanoDrop 2000 spectrophotometer (Thermo Fisher) using molar attenuation coefficient ε=19685 l·mol^−1·cm^−1. The quality of the protein was confirmed by MALDI and the exchange rate was assessed by HPLC based assay.
as §2, §3, §4, §5, §6
MALDI-TOF measurements were performed on Bruker Daltonics ultraflex III TOF-TOF mass spectrometer using linear mode and mass range from 5 to 45 kDa. […]

| Structure (SMILES) | level of covalent labeling to C95 (percent of labeling), GDP, 3 h [1] [%] | level of covalent labeling to C95 (percent of labeling), GDP, 6 h [1] [%] | level of covalent labeling to C95 (percent of labeling), GDP, 24 h [1] [%] | level of covalent labeling to C95 (percent of labeling), GppNHp, 3 h [2] [%] | level of covalent labeling to C95 (percent of labeling), GppNHp, 6 h [2] [%] | level of covalent labeling to C95 (percent of labeling), GppNHp, 24 h [2] [%] |
| --- | --- | --- | --- | --- | --- | --- |
| Cn1nc(C(=O)NCc2cn(C[C@@H]3CO3)nn2)c2cc(Br)ccc21 | 23 | 52 | 96 | 0 | 4 | 19 |
| COc1ccc(Cl)cc1C(=O)N1CCCC(C(=O)N[C@@H](CC(C)C)C(=O)[C@@]2(C)CO2)C1 (stereo partly drawn) | 0 | 0 | 0 | 0 | 0 | 0 |
| CC(C)C[C@H](NC(=O)c1cn(C)c2ccccc12)C(=O)[C@@]1(C)CO1 | 0 | 0 | 0 | 0 | 0 | 0 |
| CC(C)C[C@H](NC(=O)c1cn(C)c2ccc(Br)cc12)C(=O)[C@@]1(C)CO1 | 0 | 0 | 0 | 0 | 0 | 0 |
| Cc1ccc(S(=O)(=O)c2cn(CC3OC3(C)C)nn2)cc1 (stereo not drawn) | 0 | 0 | 0 | 0 | 0 | 0 |
| CC(C)Cc1ccc(C(C)C(=O)NCc2cn(C[C@@H]3CO3)nn2)cc1 (stereo partly drawn) | 36 | 73 | 98 | 0 | 2 | 17 |
| COc1ccc(Cl)cc1C(=O)N[C@H]1COC1=O | 87 | 91 | 89 | 76 | 81 | 78 |

Now from value to compound:

| level of covalent labeling to C95 (percent of labeling), GDP, 3 h [1] [%] | level of covalent labeling to C95 (percent of labeling), GDP, 6 h [1] [%] | level of covalent labeling to C95 (percent of labeling), GDP, 24 h [1] [%] | level of covalent labeling to C95 (percent of labeling), GppNHp, 3 h [2] [%] | level of covalent labeling to C95 (percent of labeling), GppNHp, 6 h [2] [%] | level of covalent labeling to C95 (percent of labeling), GppNHp, 24 h [2] [%] | Structure (SMILES) |
| --- | --- | --- | --- | --- | --- | --- |
| 3 | 10 | 49 | 0 | 2 | 10 | Cn1nc(C(=O)NCc2cn(C[C@H]3CO3)nn2)c2cc(Br)ccc21 |
| 0 | 5 | 31 | 0 | 2 | 11 | O=C(NCc1cn(C[C@H]2CO2)nn1)c1c[nH]c2ccccc12 |
| 5 | 12 | 45 | 2 | 3 | 14 | CC(=O)Oc1ccccc1C(=O)NCc1cn(C[C@@H]2CO2)nn1 |
| 7 | 18 | 72 | 2 | 4 | 25 | O=C(NCc1cn(C[C@@H]2CO2)nn1)c1c[nH]c2ccccc12 |
| 3 | 9 | 38 | 0 | 3 | 13 | Cn1nc(C(=O)NCc2cn(C[C@@H]3CO3)nn2)c2ccccc21 [drawing 514] |
| 0 | 0 | 0 | 0 | 0 | 0 | Cn1nc(C(=O)NCc2cn(C[C@H]3CO3)nn2)c2ccccc21 |
| 19 | 42 | 91 | 3 | 4 | 22 | Cn1cc(C(=O)NCc2cn(C[C@@H]3CO3)nn2)c2cc(Br)ccc21 |
